The numbers were not newly measured in patent publication US20070110808A1, “Extended release osmo-microsealed formulation” (ALEMBIC LIMITED, priority 2003, published 2007), which cites them from elsewhere.

The conditions of this data set: compressed tablets, 75 to 350 mg/day in divided doses two or three times a day.

Regarding `COc1ccc(C(CN(C)C)C2(O)CCCCC2)cc1.Cl` (centres unmarked) [Venlafaxine Hydrochloride, 1-[2-(dimethylamino)-1-(4-methoxyphenyl)ethyl]cyclohexanol Hydrochloride], the patients experiencing nausea result is recorded as “about forty five” and the “patients in whom vomiting occurs” value is reported as “about seventeen”.
